Target: T1, CBS (Homo sapiens, UniProt P35520)
T1 sequence (P35520 1-551): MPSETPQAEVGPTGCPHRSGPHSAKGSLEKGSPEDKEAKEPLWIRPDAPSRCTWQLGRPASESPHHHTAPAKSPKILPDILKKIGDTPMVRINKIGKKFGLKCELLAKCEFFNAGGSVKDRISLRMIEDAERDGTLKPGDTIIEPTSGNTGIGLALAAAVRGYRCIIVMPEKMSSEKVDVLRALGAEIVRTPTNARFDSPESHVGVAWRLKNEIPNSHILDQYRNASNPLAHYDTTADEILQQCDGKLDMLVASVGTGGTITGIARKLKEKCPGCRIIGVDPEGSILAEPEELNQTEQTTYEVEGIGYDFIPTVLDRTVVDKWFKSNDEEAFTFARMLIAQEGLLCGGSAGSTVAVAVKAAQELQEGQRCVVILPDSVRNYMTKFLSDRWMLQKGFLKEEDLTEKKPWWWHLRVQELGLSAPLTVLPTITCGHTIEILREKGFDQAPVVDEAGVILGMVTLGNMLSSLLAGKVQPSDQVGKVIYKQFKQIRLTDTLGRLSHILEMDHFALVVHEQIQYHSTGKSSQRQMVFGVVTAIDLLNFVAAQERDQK
Assay: H2S production in colon cancer tissue extracts (methylene blue method)
Type: biochemical
Set-up: from tissue; host or cells: human colorectal tumor tissue and patient-matched normal mucosa homogenates
Settings: AOAA 1 mM; L-cysteine 3 mM, L-homocysteine 0.5 mM, 37° C., 30 min
Description: FIG. 1. CBS is overexpressed in human colorectal cancer. (A) Representative Western blot of CBS, CSE and 3-MST protein expression in human colorectal cancer specimens, paired with the corresponding normal mucosa tissues. PVDF membranes were probed with rabbit polyclonal antibodies against CBS, CSE and 3-MST. […] (C, D) CBS was highly expressed in three different colon cancer cell lines (LoVo, HCT116 and HT29); low expression was detected in the non-tumorigenic normal colon mucosa cells (NCM356) (arbitrary relative densitometric units were normalized with β-actin using image analysis software) (*p<0.05 vs NCM356 cells) (E) or in colon cancer cell lines (F) by the methylene blue method. H2S production was stimulated in tissue or cell lysates by incubation at 37° C. (30 min) in presence of the CBS substrates L-cysteine (3 mM) and L-homocysteine (0.5 mM). […] Western blots show representatives of at least n=3 experiments; H2S measurements represent mean±SEM of at least n=3 determinations.
H2S production can be measured in a tissue homogenate by using a methylene blue assay. Briefly, 1% zinc acetate is added to a tissue homogenate to trap H2S followed by 10% trichloroacetic acid to precipitate proteins. […] The absorbance of the resulting solution is measured at 655 nm. H2S content is calculated against a calibration curve of standard H2S solutions. […]

## NOCC(=O)O [AOAA, aminooxyacetic acid]
  H2S-producing activity of CBS in tissue extracts: blocked the H2S-producing activity
